Assays:
[1] = target: T1, EcFADS (FAD synthase, RibF; RFK activity) (Escherichia coli, UniProt P0AG40); assay: RFK assay, FMN by HPLC fluorescence, Michaelis-Menten fit; assay type: biochemical; conditions: riboflavin kinase activity; 0.01-0.8 mM ATP, saturated RF; 15 mM MgCl2, 10 mM Na2SO3, potassium phosphate pH 7.5, 37 °C; read-out: KATP m
T1 construct: full-length bifunctional RibF in pETDuet-1 (BamHI/NotI), His-tagged, Ni-NTA purified, expressed in E. coli BL21(DE3); natural BL21 variant H115L (not engineered); about 35 kDa; mainly monomer; tag removal not mentioned
Excerpt: (§1) RFK assay, FMN by HPLC fluorescence, Michaelis-Menten fit on EcFADS (FAD synthase, RibF; RFK activity)

[2] = target: T2, EcFADS (FAD synthase, RibF; RFK activity) (Escherichia coli, UniProt P0AG40, H187L/N282D, form not given); assay: as above; assay type: biochemical; conditions: riboflavin kinase activity; 0.01-0.8 mM ATP, saturated RF; 15 mM MgCl2, 10 mM Na2SO3, potassium phosphate pH 7.5, 37 °C; read-out: KATP m
T2 construct: full-length bifunctional RibF in pETDuet-1 (BamHI/NotI), His-tagged, Ni-NTA purified, expressed in E. coli BL21(DE3); natural BL21 variant H115L (not engineered); about 35 kDa; mainly monomer; tag removal not mentioned
T2 sequence (P0AG40 whole entry H187L/N282D, form open): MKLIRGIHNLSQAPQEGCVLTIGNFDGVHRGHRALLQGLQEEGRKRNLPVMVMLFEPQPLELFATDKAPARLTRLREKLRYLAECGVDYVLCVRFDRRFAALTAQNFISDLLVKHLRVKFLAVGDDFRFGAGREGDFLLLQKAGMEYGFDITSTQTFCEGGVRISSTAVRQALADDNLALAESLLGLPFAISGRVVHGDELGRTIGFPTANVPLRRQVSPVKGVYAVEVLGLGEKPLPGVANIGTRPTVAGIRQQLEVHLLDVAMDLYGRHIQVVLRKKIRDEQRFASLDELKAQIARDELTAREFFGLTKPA
Excerpt: as §1

Km [1]: 10.2 ± 2.55 µM
Km [2]: 91.1 ± 36.7 µM
SMILES: Nc1ncnc2c1ncn2[C@@H]1O[C@H](COP(=O)(O)OP(=O)(O)OP(=O)(O)O)[C@@H](O)[C@H]1O [ATP]
